# Test results reported in US20070128217A1 (priority 2003, published 2007).
# What was measured:
# [1] = system: antibodies in sera from SARS patients (sera 1a, 1b, 2, 6, 37, 62, London, SARS-yellow, SARS-green); assay type: binding, human; set-up: Binding of serum 6 to linear peptides of protein X1 of SARS-CoV Urbani / Binding of serum 37 to linear peptides of protein X1 of SARS-CoV Urbani / Binding of serum 6 to looped/cyclic peptide (PEPSCAN-ELISA) / Binding of serum 37 to looped/cyclic peptide (PEPSCAN-ELISA) / Binding of serum 37 to looped/cyclic peptides of protein X1 of SARS-CoV Urbani / Binding of serum 6 to linear peptides of protein X2 / Binding of serum 37 to linear peptides of protein X2 / Binding of serum 37 to looped/cyclic peptides of protein X2 of SARS-CoV Urbani / Binding of serum 6 to linear peptides of protein M of SARS-CoV Urbani / Binding of serum 37 to linear peptides of protein M of SARS-CoV Urbani / Binding of serum 6 to looped/cyclic peptides of protein M of SARS-CoV Urbani / Binding of serum 37 to looped/cyclic peptides of protein M of SARS-CoV Urbani / Binding of serum 6 to linear peptides of protein X3 of SARS-CoV Urbani / Binding of serum 37 to linear peptides of protein X3 of SARS-CoV Urbani / Binding of serum 37 to looped/cyclic peptides of protein X3 of SARS-CoV Urbani / Binding of serum 6 to linear peptides of protein X4 of SARS-CoV Urbani / Binding of serum 37 to linear peptides of protein X4 of SARS-CoV Urbani / Binding of serum 37 to looped/cyclic peptides of protein X4 of SARS-CoV Urbani / Binding of serum 6 to linear peptides of protein X5 of SARS-CoV Urbani / Binding of serum 37 to linear peptides of protein X5 of SARS-CoV Urbani / Binding of serum 37 to looped/cyclic peptides of protein X5 of SARS-CoV Urbani / Binding of serum 6 to linear peptides of protein N of SARS-CoV Urbani / Binding of serum 37 to linear peptides of protein N of SARS-CoV Urbani / Binding of serum 6 to linear peptide (PEPSCAN-ELISA) / Binding of serum 1a to looped/cyclic peptides of protein N of SARS-CoV Urbani / Binding of serum 1b to looped/cyclic peptides of protein N of SARS-CoV Urbani / Binding of serum 2 to looped/cyclic peptides of protein N of SARS-CoV Urbani / Binding of serum 6 to looped/cyclic peptides of protein N of SARS-CoV Urbani / Binding of serum 37 to looped/cyclic peptides of protein N of SARS-CoV Urbani / Binding of serum 62 to looped/cyclic peptides of protein N of SARS-CoV Urbani / Binding of serum London to looped/cyclic peptides of protein N of SARS-CoV Urbani / Binding of serum SARS-green to looped/cyclic peptides of protein N of SARS-CoV Urbani: unit not given here
# [2] = system: control sera (pooled serum of ten healthy LUMC hospital workers; commercial negative donor pooled serum from the Dutch bloodbank); assay type: binding, human; set-up: Binding of Control serum LUMC to linear peptides / Binding of Control serum Blood-bank to linear peptides / Binding of Control serum LUMC to looped peptides / Binding of Control Serum Blood-Bank to Looped peptides / Binding of Control serum LUMC to linear peptides of the protein M of SARS-CoV Urbani / Binding of Control serum Blood-bank to linear peptides of the protein M of SARS-CoV Urbani / Binding of Control serum LUMC to looped peptides of the protein M of SARS-CoV Urbani / Binding of Control Serum Blood-Bank to Looped peptides of the protein M of SARS-CoV Urbani: unit not given here
# [3] = system: rabbit serum obtained by immunizing a rabbit with the SARS-CoV strain Frankfurt 1; assay type: binding; set-up: Binding of a rabbit serum to linear peptides / Binding of a rabbit serum to looped peptides / Rabbit serum linear peptides / Rabbit serum looped peptides / Binding of a rabbit serum to linear peptides of protein N of SARS-CoV Urbani (Rabbit serum linear peptides) / Binding of a rabbit serum to looped/cyclic peptides of protein N of SARS-CoV Urbani (Rabbit serum looped peptides): unit not given here
# [4] = system: recombinant human anti-SARS-CoV antibody 03-018; assay type: binding; set-up: Binding of antibody 03-018 to linear peptides of the N protein of SARS-CoV Urbani / Binding of antibody 03-018 to looped/cyclic peptides of the N protein of SARS-CoV Urbani: unit not given here
Sequence,Binding of serum 1a to linear peptides of protein N of SARS-CoV Urbani [1],Binding of serum 1a to looped/cyclic peptides of protein N of SARS-CoV Urbani [1],Binding of serum 1b to linear peptides of protein N of SARS-CoV Urbani [1],Binding of serum 1b to looped/cyclic peptides of protein N of SARS-CoV Urbani [1],Binding of serum 2 to linear peptides of protein N of SARS-CoV Urbani [1],Binding of serum 2 to looped/cyclic peptides of protein N of SARS-CoV Urbani [1],Binding of serum 6 to looped/cyclic peptides of protein N of SARS-CoV Urbani [1],Binding of serum 37 to looped/cyclic peptides of protein N of SARS-CoV Urbani [1],Binding of serum 62 to looped/cyclic peptides of protein N of SARS-CoV Urbani [1],Binding of serum London to looped/cyclic peptides of protein N of SARS-CoV Urbani [1],Binding of serum SARS-green to looped/cyclic peptides of protein N of SARS-CoV Urbani [1],Binding of serum SARS-yellow to looped/cyclic peptides of protein N of SARS-CoV Urbani [1],Binding of Control Serum Blood-Bank to Looped peptides [2],Binding of Control serum Blood-bank to linear peptides [2],Binding of Control serum LUMC to linear peptides [2],Binding of Control serum LUMC to looped peptides [2],Binding of a rabbit serum to linear peptides of protein N of SARS-CoV Urbani (Rabbit serum linear peptides) [3],Binding of a rabbit serum to looped/cyclic peptides of protein N of SARS-CoV Urbani (Rabbit serum looped peptides) [3],Binding of antibody 03-018 to linear peptides of the N protein of SARS-CoV Urbani [4],Binding of antibody 03-018 to looped/cyclic peptides of the N protein of SARS-CoV Urbani [4],further results
FPRGQGVPINTNSGP,0.2,0.3,0.1,0.2,0.3,0.4,0.2,0.5,0.4,0.4,0.4,0.4,0.6,0.8,0.7,0.5,0.2,0.2,0.1,0.2,Binding of serum 6 to linear peptides of protein N of SARS-CoV Urbani [1]: 0.2; Binding of serum 37 to linear peptides of protein N of SARS-CoV Urbani [1]: 0.7; Binding of serum 62 to linear peptides of protein N of SARS-CoV Urbani [1]: 0.6; Binding of serum London to linear peptides of protein N of SARS-CoV Urbani [1]: 0.5; Binding of serum SARS-green to linear peptides of protein N of SARS-CoV Urbani [1]: 0.3; Binding of serum SARS-yellow to linear peptides of protein N of SARS-CoV Urbani [1]: 0.6
FYAEGSRGGSQASSR,,0.3,,0.2,,0.4,0.3,0.6,0.6,0.4,0.4,0.3,0.6,0.8,0.7,0.8,0.3,0.4,0.1,0.1,Binding of serum 1a to linear peptide (PEPSCAN-ELISA) [1]: 0.3; Binding of serum 1b to linear peptide (PEPSCAN-ELISA) [1]: 0.2; Binding of serum 2 to linear peptide (PEPSCAN-ELISA) [1]: 0.2; Binding of serum 6 to linear peptide (PEPSCAN-ELISA) [1]: 0.3; Binding of serum 37 to linear peptide (PEPSCAN-ELISA) [1]: 0.7; Binding of serum 62 to linear peptide (PEPSCAN-ELISA) [1]: 0.8; Binding of serum London to linear peptide (PEPSCAN-ELISA) [1]: 0.5; Binding of serum SARS-green to linear peptide (PEPSCAN-ELISA) [1]: 0.4; Binding of serum SARS-yellow to linear peptide (PEPSCAN-ELISA) [1]: 0.6
GALNTPKDHIGTRNP,0.3,0.2,0.1,0.1,0.2,0.5,0.2,0.5,0.3,0.4,0.2,0.2,0.5,0.7,0.6,0.4,0.2,0.0,0.1,0.2,Binding of serum 6 to linear peptides of protein N of SARS-CoV Urbani [1]: 0.2; Binding of serum 37 to linear peptides of protein N of SARS-CoV Urbani [1]: 0.7; Binding of serum 62 to linear peptides of protein N of SARS-CoV Urbani [1]: 0.7; Binding of serum London to linear peptides of protein N of SARS-CoV Urbani [1]: 0.5; Binding of serum SARS-green to linear peptides of protein N of SARS-CoV Urbani [1]: 0.4; Binding of serum SARS-yellow to linear peptides of protein N of SARS-CoV Urbani [1]: 0.7
GDGKMKELSPRWYFY,0.2,0.4,0.1,0.3,0.2,0.6,0.3,0.7,0.6,0.5,0.5,0.7,0.7,0.6,0.6,0.8,0.2,0.6,0.1,0.2,Binding of serum 6 to linear peptides of protein N of SARS-CoV Urbani [1]: 0.1; Binding of serum 37 to linear peptides of protein N of SARS-CoV Urbani [1]: 0.5; Binding of serum 62 to linear peptides of protein N of SARS-CoV Urbani [1]: 0.6; Binding of serum London to linear peptides of protein N of SARS-CoV Urbani [1]: 0.4; Binding of serum SARS-green to linear peptides of protein N of SARS-CoV Urbani [1]: 0.3; Binding of serum SARS-yellow to linear peptides of protein N of SARS-CoV Urbani [1]: 0.6
